From patent US11440880B2, “Thalidomide analogs and methods of use” (The USA, as represented by the Secretary, Department of …, priority 2015, dated 2022)
Entries after “also recorded” stand apart in the source; their conditions may differ.

Columns and labels:
WT zebrafish embryos = test: WT zebrafish embryo development / teratogenicity; type: in vivo, zebrafish (Danio rerio); conditions: in words; at concentrations active in fli1:EGFP or mpo:GFP assays
Text: To determine the effects of the candidate compounds on embryonic development, two in vivo model systems (developing zebrafish and chicken embryos) were utilized.
Malformations in the development of the zebrafish embryo were noted, including inhibition of eye, otic vesicle and fin development (FIGS. 7A-7F). […] Embryos were screened at concentrations previously determined, in this study, to be anti-angiogenic or anti-inflammatory in the fli1:EGFP and mpo:GFP assays respectively.
(§1) Concentrations used in the WT zebrafish and chicken embryo assays to assess for teratogenesis, were equal to or higher than those utilized in the fil1:EGFP and mpo:GFP zebrafish assays

chicken embryos = test: Chicken embryo development / teratogenicity; type: in vivo, white leghorn chicken; conditions: in words; applied at HH stage 17-18
Procedure: Chicken Embryology: Fertilized white leghorn chicken embryos were incubated at 38° C. and staged according to Hamburger and Hamilton (HH) stages of development (1951). Embryos were tested at HH stage 17-18 (day 2.5). Following membrane removal, test compounds or vehicle control solutions were applied globally over the embryo. The eggs were sealed and the development of the embryos was monitored up to HH stage 30 (E9).
Compounds of interest were screened in chicken embryos (FIGS. 7I-7P).
as §1

[1] = system: rat aortic rings (microvessel outgrowth); test: Rat aortic ring assay of angiogenesis; type: cell-based, Sprague Dawley rats; conditions: 50 μM, 5 days
Procedure: Matrigel® matrix (BD Biosciences) was defrosted overnight on ice. The wells of a 24 well plate were coated with 300 μL of the gel using frozen pipette tips. The gel was left to set at room temperature. When required, six week old male Sprague Dawley rats were euthanized by CO2 and decapitation. The blood was drained from the tissue and the descending aorta dissected. The aorta was cleaned in EBM media, the over lying fascia removed, and the tissue was sliced into 1-mm sections using a sterile scalpel and tweezers. The sections were rinsed in clean EBM then placed onto the coagulated gel. Another 300 μL of Matrigel® matrix was pipetted onto the ring and left to set for 30 minutes. EGM™-II endothelial growth medium (500 μL) was added to each well. The rings were incubated overnight at 37° C. The next day the media was removed and replaced with EBM containing compounds (50 μM) or media. TNP-470 ((Chloracetyl) carbamic acid (3R,4S,5S,6R)-5-methoxy-4-[(2R,3R)-2-methyl-3-(3-methyl-2-butenyl)oxiranyl]-1-oxaspiro[2.5]oct-6-yl ester) was used as a positive control. The rings were incubated in the compounds for 5 days. On day 5 the rings were imaged using an EVOS™ scope. The vessel outgrowth was quantified by binary conversion in Image J open-source image processing software and average outgrowth calculated (FIG. 9).

## Nc1cccc2c1CN(C13CC4CC(CC(C4)C1)C3)C2=O [Compound 77, 2,3-Dihydro-4-amino-2-(tricyclo[3.3.1.1^3,7]dec-1-yl)-1H-isoindol-1-one]
WT zebrafish embryos
  effect on development / mortality of zebrafish embryos: no apparent effect on the development of the zebrafish embryo

## CC(N1Cc2c(N)cccc2C1=O)C12CC3CC(CC(C3)C1)C2 (stereo not drawn) [Compound 81]
Chicken embryos
  effect on development / mortality of chicken embryos: hemorrhaging throughout the body and head; also recorded: growth reduction and hemorrhaging throughout the head

## O=C1c2ccccc2CN1C12CC3CC(CC(O)(C3)C1)C2 [Compound 86, 2,3-Dihydro-2-(tricyclo[3.3.1.1^3,7]dec-1-hydroxy-3-yl)-1H-isoindol-1-one]
[1]
  microvessel outgrowth: 17.3%
